Measurements: PubChem BioAssay AID1963849 (Molecular Pharmacology Branch, DTP, NCI, 2024)

Test system: 299254-011-R-J1-PDC complex spheroid viability
Assay: Anticancer human tumor 299254-011-R-J1-PDC patient-derived melanoma cell line growth inhibition [POLQ]
Conditions: for IC50: curve of first compound; for viability, T/C: stronger effect = lower value
Summary of the method: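 Growth inhibition in 3D: complex spheroids (tumor PDC, HUVEC, MSC) treated with POLQ inhibitor combinations; where Cmax unknown, highest tested concentration 10 microM, except SN-38 at 1 microM.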

[1] = second compound 0.0316 µM, first compound 0.0316 µM
[2] = second compound 0.0316 µM, first compound 0.1 µM
[3] = second compound 0.0316 µM, first compound 0.316 µM
[4] = second compound 0.0316 µM, first compound 1 µM
[5] = second compound 0.0316 µM, first compound 3.16 µM
[6] = second compound 0.0316 µM, first compound 10 µM
[7] = second compound 0.1 µM, first compound 0.0316 µM
[8] = second compound 0.1 µM, first compound 0.1 µM
[9] = second compound 0.1 µM, first compound 0.316 µM
[10] = second compound 0.1 µM, first compound 1 µM
[11] = second compound 0.1 µM, first compound 3.16 µM
[12] = second compound 0.1 µM, first compound 10 µM
[13] = second compound 0.316 µM, first compound 0.0316 µM
[14] = second compound 0.316 µM, first compound 0.1 µM
[15] = second compound 0.316 µM, first compound 0.316 µM
[16] = second compound 0.316 µM, first compound 1 µM
[17] = second compound 0.316 µM, first compound 3.16 µM
[18] = second compound 0.316 µM, first compound 10 µM
[19] = second compound 1 µM, first compound 0.0316 µM
[20] = second compound 1 µM, first compound 0.1 µM
[21] = second compound 1 µM, first compound 0.316 µM
[22] = second compound 1 µM, first compound 1 µM
[23] = second compound 1 µM, first compound 3.16 µM
[24] = second compound 1 µM, first compound 10 µM
[25] = second compound 3.16 µM, first compound 0.0316 µM
[26] = second compound 3.16 µM, first compound 0.1 µM
[27] = second compound 3.16 µM, first compound 0.316 µM
[28] = second compound 3.16 µM, first compound 1 µM
[29] = second compound 3.16 µM, first compound 3.16 µM
[30] = second compound 3.16 µM, first compound 10 µM
[31] = second compound 10 µM, first compound 0.0316 µM
[32] = second compound 10 µM, first compound 0.1 µM
[33] = second compound 10 µM, first compound 0.316 µM
[34] = second compound 10 µM, first compound 1 µM
[35] = second compound 10 µM, first compound 3.16 µM
[36] = second compound 10 µM, first compound 10 µM
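Also: spheroids exposed to drugs for one week before measurement.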
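For viability, T/C in this document: percent viability relative to DMSO vehicle control taken as 100%.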

In the case of `Nc1ccn(C2OC(CO)C(O)C2(F)F)c(=O)n1` (stereo unspecified) + COC1C(OC(N)=O)C(O)C(Oc2ccc3c(O)c(NC(=O)c4ccc(O)c(CC=C(C)C)c4)c(=O)oc3c2C)OC1(C)C, the IC50 (second compound 0.0316 µM) is reported as 81.8 nM, the IC50 (second compound 0.1 µM) is reported as 76.7 nM and the IC50 (second compound 0.316 µM) is reported as 63.1 nM. For the same compound, the IC50 (second compound 1 µM) was 79.6 nM, the IC50 (second compound 3.16 µM) was under 31.6 nM and the IC50 (second compound 10 µM) was 66.2 nM. The viability, T/C [1] was 62.8%, the viability, T/C [2] was 44.3% and the viability, T/C [3] was 41.2%. For the same compound, the viability, T/C [4] was 35.1%, the viability, T/C [5] was 46.8% and the viability, T/C [6] was 44.4%. It also gave a viability, T/C [7] of 60.1%, a viability, T/C [8] of 40.6% and a viability, T/C [9] of 52.4%. For the same compound, the viability, T/C [10] was 37.7%, the viability, T/C [11] was 35.6% and the viability, T/C [12] was 39.2%. The viability, T/C [13] was 64.7%, the viability, T/C [14] was 40.6% and the viability, T/C [15] was 36.6%. It also gave a viability, T/C [16] of 30.9%, a viability, T/C [17] of 44.7% and a viability, T/C [18] of 41.2%. For the same compound, the viability, T/C [19] was 71.6%, the viability, T/C [20] was 44.4% and the viability, T/C [21] was 46.6%. It also gave a viability, T/C [22] of 33.8%, a viability, T/C [23] of 48.9% and a viability, T/C [24] of 45.5%. For the same compound, the viability, T/C [25] was 57%, the viability, T/C [26] was 38.8% and the viability, T/C [27] was 35%. The viability, T/C [28] was 39.6%, the viability, T/C [29] was 31.3% and the viability, T/C [30] was 42.4%. It also gave a viability, T/C [31] of 61%, a viability, T/C [32] of 44.1% and a viability, T/C [33] of 39.1%. The viability, T/C [34] was 39.3%, the viability, T/C [35] was 48.9% and the viability, T/C [36] was 31.4%.

`CC(=O)O[C@H]1C(=O)[C@@]2(C)[C@H]([C@H](OC(=O)c3ccccc3)[C@]3(O)C[C@H](OC(=O)[C@H](O)[C@@H](NC(=O)c4ccccc4)c4ccccc4)C(C)=C1C3(C)C)[C@]1(OC(C)=O)CO[C@@H]1C[C@@H]2O` + Cc1cccc(N(C)C(=O)C2C(O)CCN2c2nc(C)cc(C(F)(F)F)c2C#N)c1 showed an IC50 (second compound 0.0316 µM) of 123 nM, an IC50 (second compound 0.1 µM) of 91.7 nM and an IC50 (second compound 0.316 µM) of 69.8 nM. It also gave an IC50 (second compound 1 µM) of 73.4 nM, an IC50 (second compound 3.16 µM) of 26.8 nM and an IC50 (second compound 10 µM) of under 9.49 nM. The viability, T/C (second compound 0.0316 µM, first compound 0.00949 µM) was 99.2%, the viability, T/C (second compound 0.0316 µM, first compound 0.03 µM) was 79.7% and the viability, T/C (second compound 0.0316 µM, first compound 0.0949 µM) was 55.1%. The viability, T/C (second compound 0.0316 µM, first compound 0.3 µM) was 35.7%, the viability, T/C (second compound 0.0316 µM, first compound 0.949 µM) was 22% and the viability, T/C (second compound 0.0316 µM, first compound 3 µM) was 24.4%. It also gave a viability, T/C (second compound 0.1 µM, first compound 0.00949 µM) of 84.3%, a viability, T/C (second compound 0.1 µM, first compound 0.03 µM) of 70.7% and a viability, T/C (second compound 0.1 µM, first compound 0.0949 µM) of 49.6%. The viability, T/C (second compound 0.1 µM, first compound 0.3 µM) was 31.3%, the viability, T/C (second compound 0.1 µM, first compound 0.949 µM) was 23.2% and the viability, T/C (second compound 0.1 µM, first compound 3 µM) was 20.7%. It also gave a viability, T/C (second compound 0.316 µM, first compound 0.00949 µM) of 90.2%, a viability, T/C (second compound 0.316 µM, first compound 0.03 µM) of 68.6% and a viability, T/C (second compound 0.316 µM, first compound 0.0949 µM) of 41.7%. It also gave a viability, T/C (second compound 0.316 µM, first compound 0.3 µM) of 33.1%, a viability, T/C (second compound 0.316 µM, first compound 0.949 µM) of 29.8% and a viability, T/C (second compound 0.316 µM, first compound 3 µM) of 23.4%. The viability, T/C (second compound 1 µM, first compound 0.00949 µM) was 84.9%, the viability, T/C (second compound 1 µM, first compound 0.03 µM) was 69.2% and the viability, T/C (second compound 1 µM, first compound 0.0949 µM) was 43.4%. The viability, T/C (second compound 1 µM, first compound 0.3 µM) was 31.6%, the viability, T/C (second compound 1 µM, first compound 0.949 µM) was 21.3% and the viability, T/C (second compound 1 µM, first compound 3 µM) was 23.2%. The viability, T/C (second compound 3.16 µM, first compound 0.00949 µM) was 68.5%, the viability, T/C (second compound 3.16 µM, first compound 0.03 µM) was 48% and the viability, T/C (second compound 3.16 µM, first compound 0.0949 µM) was 33.8%. For the same compound, the viability, T/C (second compound 3.16 µM, first compound 0.3 µM) was 27.5%, the viability, T/C (second compound 3.16 µM, first compound 0.949 µM) was 21.7% and the viability, T/C (second compound 3.16 µM, first compound 3 µM) was 21.4%. For the same compound, the viability, T/C (second compound 10 µM, first compound 0.00949 µM) was 49%, the viability, T/C (second compound 10 µM, first compound 0.03 µM) was 31.2% and the viability, T/C (second compound 10 µM, first compound 0.0949 µM) was 20.4%. It also gave a viability, T/C (second compound 10 µM, first compound 0.3 µM) of 23.2%, a viability, T/C (second compound 10 µM, first compound 0.949 µM) of 22.7% and a viability, T/C (second compound 10 µM, first compound 3 µM) of 19.6%.

`C=CC(=O)N1CCN(c2nc(=O)n(-c3c(C)ccnc3C(C)C)c3nc(-c4c(O)cccc4F)c(F)cc23)C(C)C1` (stereo unspecified) + Nc1ccc(C#CCN(C(=O)Cc2ncc(C(F)(F)F)cc2C(F)(F)F)c2ccc(F)cc2)nn1 was tested, and the IC50 (second compound 0.0316 µM) was over 10000 nM, the IC50 (second compound 0.1 µM) was over 10000 nM and the IC50 (second compound 0.316 µM) was over 10000 nM. For the same compound, the IC50 (second compound 1 µM) was over 10000 nM, the IC50 (second compound 3.16 µM) was over 10000 nM and the IC50 (second compound 10 µM) was over 10000 nM. For the same compound, the viability, T/C [1] was 77.4%, the viability, T/C [2] was 83.6% and the viability, T/C [3] was 80%. The viability, T/C [4] was 84.9%, the viability, T/C [5] was 88.7% and the viability, T/C [6] was 70.2%. For the same compound, the viability, T/C [7] was 86.9%, the viability, T/C [8] was 75.2% and the viability, T/C [9] was 80.7%. For the same compound, the viability, T/C [10] was 86.2%, the viability, T/C [11] was 81.7% and the viability, T/C [12] was 76.9%. For the same compound, the viability, T/C [13] was 93.5%, the viability, T/C [14] was 76.9% and the viability, T/C [15] was 66.2%. The viability, T/C [16] was 82.2%, the viability, T/C [17] was 77.9% and the viability, T/C [18] was 78.4%. It also gave a viability, T/C [19] of 96.2%, a viability, T/C [20] of 78.1% and a viability, T/C [21] of 81.6%. It also gave a viability, T/C [22] of 79.1%, a viability, T/C [23] of 92.7% and a viability, T/C [24] of 79%. The viability, T/C [25] was 83.1%, the viability, T/C [26] was 80% and the viability, T/C [27] was 74.6%. The viability, T/C [28] was 82.2%, the viability, T/C [29] was 85.9% and the viability, T/C [30] was 64.5%. The viability, T/C [31] was 90.3%, the viability, T/C [32] was 80.8% and the viability, T/C [33] was 73.5%. The viability, T/C [34] was 79.1%, the viability, T/C [35] was 79.7% and the viability, T/C [36] was 77.4%.
